Experiments:
[1] = molecular target: T1, human GlyT2 (Homo sapiens, UniProt Q9Y345); experiment: Glycine uptake assay (GlyT2 assay); format: cell-based; details: HEK 293 cells stably transfected with human GlyT2; 14C-glycine 10 μM; room temperature 2-3 hours
T1 construct: expressed in transfected cells
T1 sequence (Q9Y345 1-797): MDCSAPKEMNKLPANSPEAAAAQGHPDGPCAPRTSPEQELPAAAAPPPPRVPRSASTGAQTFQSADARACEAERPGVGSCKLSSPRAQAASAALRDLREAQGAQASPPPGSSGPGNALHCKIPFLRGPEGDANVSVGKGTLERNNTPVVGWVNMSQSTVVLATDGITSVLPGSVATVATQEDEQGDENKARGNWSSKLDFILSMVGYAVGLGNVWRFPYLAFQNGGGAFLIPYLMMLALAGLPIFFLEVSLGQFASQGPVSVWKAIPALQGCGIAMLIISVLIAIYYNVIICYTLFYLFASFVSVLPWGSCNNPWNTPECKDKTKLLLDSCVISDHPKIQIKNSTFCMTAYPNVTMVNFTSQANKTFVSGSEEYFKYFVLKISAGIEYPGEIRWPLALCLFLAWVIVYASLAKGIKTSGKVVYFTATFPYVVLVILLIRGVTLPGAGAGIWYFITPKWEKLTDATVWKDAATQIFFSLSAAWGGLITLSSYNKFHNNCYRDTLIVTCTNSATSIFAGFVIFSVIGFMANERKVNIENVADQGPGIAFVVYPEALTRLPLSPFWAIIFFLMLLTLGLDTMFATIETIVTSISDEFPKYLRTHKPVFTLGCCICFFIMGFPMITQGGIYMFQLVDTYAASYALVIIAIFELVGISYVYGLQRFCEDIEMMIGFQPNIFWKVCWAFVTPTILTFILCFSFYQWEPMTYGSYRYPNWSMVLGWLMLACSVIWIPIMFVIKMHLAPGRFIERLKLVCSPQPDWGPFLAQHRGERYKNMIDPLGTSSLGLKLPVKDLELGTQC
Method: Experiment 1 Glycine uptake assay (GlyT2 and GlyT1 assay)
Inhibitory activity on GlyT2 and GlyT1 was examined by glycine uptake assays using cells expressing GlyT2 or GlyT1, as described in the literatures, Caulfield et al. (J. Med. Chem., 2001, 44, 2679-2682), Williams et al. (Anal. Biochem., 2003, 321, 31-37, etc.), and/or Morrow et al. (FEBS Letters, 1998, 439: 334-340).
Briefly, the assays were performed as follows.
HEK 293 cells stably transfected with either human GlyT2 or human GlyT1b were used. The cells were grown in 96-well Cytostar-T™ scintillating microplates (20,000-40,000 cells/well) overnight before removal of culture medium and addition of HEPES buffered saline containing glycine (10 μM) labeled with ^14C and varying concentrations of test compounds.
Plates were incubated at room temperature for 2-3 hours, and then, the plates were counted in a plate counter.
Data were analyzed by the sigmoid dose-response curve fitting to produce IC50 (the concentration of test compound producing 50% inhibition) values.

IC50 [1]	melting point	SMILES
< 0.01 µM		CCC[C@H](NC(=O)c1cc(OC)c(OCc2ccccc2)c(OC)c1)C(=O)NCC1(N(C)C)CCCC1 [Example 1.026]
	103 to 104 °C	CCCCCCOc1ccc(C(=O)N[C@@H](CCC)C(=O)NCCN(C)C)cc1 [Example 1.001, N-[(1S)-1-[[[2-(dimethylamino)ethyl]amino]carbonyl]butyl]-4-(hexyloxy)benzamide]

Source: US7718703B2, “Norvaline derivative and method for preparation thereof” (Mitsubishi Tanabe Pharma Corporation, priority 2006, dated 2010)
